Measured values published in patent US12729377B2, “RNAi agents and compositions for inhibiting expression of angiopoietin-like 3 (ANGPTL3), and methods of use” (Arrowhead Pharmaceuticals, Inc., priority 2017, dated 2026).
In the oligonucleotide strings, read from the 5' end, every base follows the letter of its sugar. An asterisk marks phosphorothioate; unmarked linkages are phosphodiester. Other units and linkages are bracketed, terminal groups are in braces. A string of capitals states the bases alone. {NAG37} = tridentate N-acetyl-galactosamine targeting ligand, structure (NAG37)s; [invAb] = inverted abasic unit; m = 2'-O-methyl; f = 2'-fluoro

Experiments:
[1] = test system: ANGPTL3 protein; experiment: Example 3: serum ANGPTL3 protein by ELISA in mice; format: in vivo, C57bl/6 mice; conditions: for Avg ANGPTL3 (Average ANGPTL3 Protein Normalized to Pre-Treatment and Control): 1.0 mg/kg single subcutaneous dose on day 1, serum, female C57bl/6 mice
Method: (§1) To assess the in vivo activity of ANGPTL3 RNAi agents that are designed to target positions 921 and 922 on the ANGPTL3 gene, six- to eight-week-old female C57bl/6 mice were used. Pre-dose serum samples were taken at day −1 after a four hour fast. At day 1, each mouse was given a single subcutaneous administration of 200 μl containing either 1 mg/kg (mpk) of an ANGPTL3 RNAi agent in D5W (dextrose in 5% water), or control (D5W) with no RNAi agent, according to the dosing groups recited in Table 12.
(§2) Each of the RNAi agents included a modified sequence and an N-acetyl-galactosamine-containing targeting ligand conjugated to the 5′ terminal end of the sense strand. (See Tables 3, 4, and 5 for modified sequences and targeting ligand structures). The injections were performed between the skin and muscle (i.e. subcutaneous injections) into the loose skin over the neck and shoulder area. Three (3) mice in each group were tested (n=3). […] Mice were fasted for four hours prior to each collection. ANGPTL3 protein levels in serum were measured by ELISA assay (R&D Systems), according to the manufacturer's recommendations. Triglycerides, high-density lipoprotein (HDL), and total cholesterol in serum were measured on a Cobas® Integra 400 (Roche Diagnostics), according to the manufacturer's recommendations.
(§3) The ANGPTL3 protein levels, triglyceride levels, HDL levels, and total cholesterol levels for each animal were normalized. For normalization, the level of ANGPTL3 protein, triglyceride, HDL, and total cholesterol, respectively, for each animal at a time point, was divided by the pre-treatment level of expression in that animal (in this case at day −1) to determine the ratio of expression “normalized to pre-treatment.” Expression at a specific time point was then normalized to the D5W control group by dividing the “normalized to pre-treatment” ratio for an individual animal by the mean “normalized to pretreatment” ratio of all mice in the D5W control group.

[2] = test system: ANGPTL3 gene; experiment: Example 2: serum HDL in mice; format: in vivo
Method: as §1, with “target different” for “target”, “positions” for “positions 921 and 922”, “either 3” for “either 1”, “Table 7.” for “Table 12.”
(§4) Each of the RNAi agents included a modified sequence and an N-acetyl-galactosamine-containing targeting ligand conjugated to the 5′ terminal end of the sense strand. (See Tables 3, 4, and 5 for modified sequences and targeting ligand structures). The injections were performed between the skin and muscle (i.e. subcutaneous injections) into the loose skin over the neck and shoulder area. Three (3) mice in each group were tested (n=3). Serum was collected on days 8, […], 22, 29, and day 36 (for Groups 1 and 5-11 only). Mice were fasted for four hours prior to each collection. ANGPTL3 protein levels in serum were measured by ELISA assay (R&D Systems), according to the manufacturer's recommendations. Triglycerides, high-density lipoprotein (HDL), and total cholesterol in serum were measured on a Cobas® Integra 400 (Roche Diagnostics), according to the manufacturer's recommendations.
as §3

[3] = test system: ANGPTL3 gene; experiment: Example 3: serum total cholesterol in mice; format: in vivo
Method: as §1, §2, §3

[4] = test system: ANGPTL3 gene; experiment: Example 2: serum total cholesterol in mice; format: in vivo
Method: as §1, with “target different” for “target”, “positions” for “positions 921 and 922”, “either 3” for “either 1”, “Table 7.” for “Table 12.”
as §4, §3

[5] = test system: ANGPTL3 gene; experiment: Example 3: serum HDL in mice; format: in vivo
Method: as §1, §2, §3

[6] = test system: ANGPTL3 gene; experiment: Example 8: serum HDL in cynomolgus monkeys; format: in vivo, cynomolgus macaque (Macaca fascicularis); conditions: 3.0 mg/kg single SC injection day 1, cynos, n=2
Method: (§5) Additional ANGPTL3 RNAi agents were evaluated in cynomolgus monkeys. On day 1, cynomolgus macaque (Macaca fascicularis) primates (also referred to herein as “cynos”) were administered a single subcutaneous injection of 0.3 mL/kg (approximately 1-2 mL volume, depending on animal mass) containing 3.0 mg/kg of one of ANGPTL3 RNAi agent AD05577, AD05307, AD05488, AD05654, or AD05659, each formulated in saline.
(§6) Two (2) cynos in each group were tested (n=2). Blood samples were drawn and serum samples were analyzed on days −8 (pre-dose), 1 (pre-dose), 8, 15, 22, 29, and 36. Cynos were fasted overnight prior to each collection. ANGPTL3 protein levels in serum were measured by ELISA assay (R&D Systems), according to the manufacturer's recommendations. Triglycerides, total cholesterol, high-density lipoprotein (HDL), and low-density lipoprotein (LDL) in serum were measured on a Cobas® Integra 400 (Roche Diagnostics), according to the manufacturer's recommendations.
(§7) The ANGPTL3 protein levels, triglyceride levels, total cholesterol levels, HDL levels, and LDL levels for each animal were normalized. For normalization, the level of ANGPTL3 protein, triglyceride, HDL, and total cholesterol, respectively, for each animal at a time point, was divided by the average pre-treatment level of expression in that animal (in this case at days −8, and 1 (pre-dose)) to determine the ratio of expression “normalized to pre-treatment.”

[7] = test system: ANGPTL3 gene; experiment: Example 8: serum total cholesterol in cynomolgus monkeys; format: in vivo, cynomolgus macaque (Macaca fascicularis); conditions: 3.0 mg/kg single SC injection day 1, cynos, n=2
Method: as §5, §6, §7

[8] = test system: ANGPTL3 gene; experiment: Example 8: serum triglycerides in cynomolgus monkeys; format: in vivo, cynomolgus macaque (Macaca fascicularis); conditions: 3.0 mg/kg single SC injection day 1, cynos, n=2
Method: as §5, §6, §7

[9] = day 22, single 1 mg/kg subcutaneous, C57bl/6 mice
[10] = Day 8, 3.0 mg/kg single subcutaneous dose on day 1, female C57bl/6 mice
[11] = Day 13, 3.0 mg/kg single subcutaneous dose on day 1, female C57bl/6 mice
[12] = Day 22, 3.0 mg/kg single subcutaneous dose on day 1, female C57bl/6 mice
[13] = Day 29, 3.0 mg/kg single subcutaneous dose on day 1, female C57bl/6 mice
[14] = Day 36, 3.0 mg/kg single subcutaneous dose on day 1, female C57bl/6 mice
[15] = Day 8, 1.0 mg/kg single subcutaneous dose on day 1, female C57bl/6 mice
[16] = Day 15, 1.0 mg/kg single subcutaneous dose on day 1, female C57bl/6 mice
[17] = Day 22, 1.0 mg/kg single subcutaneous dose on day 1, female C57bl/6 mice
[18] = Day 29, 1.0 mg/kg single subcutaneous dose on day 1, female C57bl/6 mice

In the case of “AD05308: RNAi agent duplex: antisense AM07003-AS, sense AM07002-SS (chain 1 mU*fG*mU*fUmGfAmAfUmUfAmAfUmGfUmCfCmAfUmGfG*mA; chain 2 {NAG37}*[invAb]*mUmCmCmAmUmGmGmAfCfAfUmUmAmAmUmUmCmAmAmCmA*[invAb])”, the “Avg ANGPTL3 (Average ANGPTL3 Protein Normalized to Pre-Treatment and Control)” value ([1]; Day 8) is reported as 0.196, the “Avg ANGPTL3 (Average ANGPTL3 Protein Normalized to Pre-Treatment and Control)” value ([1]; Day 15) is reported as 0.202 and the “Avg ANGPTL3 (Average ANGPTL3 Protein Normalized to Pre-Treatment and Control)” value ([1]; Day 22) is reported as 0.209. For the same substance, the “Avg ANGPTL3 (Average ANGPTL3 Protein Normalized to Pre-Treatment and Control)” value ([1]; Day 29) was 0.309, the “ANGPTL3 protein normalized to pre-treatment and control” value [1, 9] was 0.209 and the “reduction in ANGPTL3 protein levels compared to control” value [1, 9] was roughly 80%. The “Avg HDL (Average HDL Normalized to Pre-Treatment and Control)” value [2, 10] was 0.634, the “Avg HDL (Average HDL Normalized to Pre-Treatment and Control)” value [2, 11] was 0.583 and the “Avg HDL (Average HDL Normalized to Pre-Treatment and Control)” value [2, 12] was 0.572. The “Avg HDL (Average HDL Normalized to Pre-Treatment and Control)” value [2, 13] was 0.606, the “Avg HDL (Average HDL Normalized to Pre-Treatment and Control)” value [2, 14] was 0.854 and the “Avg Total Chol (Average Total Cholestrol Normalized to Pre-Treatment and Control)” value [3, 15] was 0.872. The “Avg Total Chol (Average Total Cholestrol Normalized to Pre-Treatment and Control)” value [3, 16] was 0.768, the “Avg Total Chol (Average Total Cholestrol Normalized to Pre-Treatment and Control)” value [3, 17] was 1.048 and the “Avg Total Chol (Average Total Cholestrol Normalized to Pre-Treatment and Control)” value [3, 18] was 0.978. For the same substance, the “Avg Total Chol (Average Total Cholestrol Normalized to Pre-Treatment and Control)” value [4, 10] was 0.671, the “Avg Total Chol (Average Total Cholestrol Normalized to Pre-Treatment and Control)” value [4, 11] was 0.645 and the “Avg Total Chol (Average Total Cholestrol Normalized to Pre-Treatment and Control)” value [4, 12] was 0.621. For the same substance, the “Avg Total Chol (Average Total Cholestrol Normalized to Pre-Treatment and Control)” value [4, 13] was 0.669, the “Avg Total Chol (Average Total Cholestrol Normalized to Pre-Treatment and Control)” value [4, 14] was 0.905 and the “Avg HDL (Average HDL Normalized to Pre-Treatment and Control)” value [5, 15] was 0.838. The “Avg HDL (Average HDL Normalized to Pre-Treatment and Control)” value [5, 16] was 0.754, the “Avg HDL (Average HDL Normalized to Pre-Treatment and Control)” value [5, 17] was 0.739 and the “Avg HDL (Average HDL Normalized to Pre-Treatment and Control)” value [5, 18] was 0.953.
In the case of “AD05488: RNAi agent duplex: antisense AM07235-AS, sense AM07234-SS (antisense mU*fA*mC*fUmGfAmUfCmAfAmAfUmAfUmGfUmUfGmAfG*mC; sense {NAG37}*[invAb]*mGmCmUmCmAmAmCmAfUfAfUmUmUmGmAmUmCmAmGmUmA*[invAb])”, the “Average HDL Normalized to Pre-Treatment” value ([6]; Day 8) is reported as 0.832, the “Average HDL Normalized to Pre-Treatment” value ([6]; Day 15) is reported as 0.695 and the “Average HDL Normalized to Pre-Treatment” value ([6]; Day 22) is reported as 0.688. The “Average HDL Normalized to Pre-Treatment” value ([6]; Day 29) was 0.657, the “Average HDL Normalized to Pre-Treatment” value ([6]; Day 36) was 0.622 and the “Avg Total Chol normalized to pre-treatment” value (“Avg Total Chol normalized” for short) ([7]; Day 8) was 0.840. For the same substance, the “Avg Total Chol normalized” value ([7]; Day 15) was 0.779, the “Avg Total Chol normalized” value ([7]; Day 22) was 0.743 and the “Avg Total Chol normalized” value ([7]; Day 29) was 0.674. The “Avg Total Chol normalized” value ([7]; Day 36) was 0.722, the “Avg TG normalized to pre-treatment” value ([8]; Day 8) was 0.727 and the “Avg TG normalized to pre-treatment” value ([8]; Day 15) was 0.586. For the same substance, the “Avg TG normalized to pre-treatment” value ([8]; Day 22) was 0.399, the “Avg TG normalized to pre-treatment” value ([8]; Day 29) was 0.534 and the “Avg TG normalized to pre-treatment” value ([8]; Day 36) was 0.364.
“AD05418: RNAi agent duplex: antisense AM07159-AS, sense AM07158-SS (antisense mU*fU*mU*fGmAfAmUfUmAfAmUfGmUfCmCfAmUfGmGfG*mU; sense {NAG37}*[invAb]*mAmCmCmCmAmUmGmGfAfCfAmUmUmAmAmUmUmCmAmAmA*[invAb])” was tested, and the “Avg ANGPTL3 (Average ANGPTL3 Protein Normalized to Pre-Treatment and Control)” value ([1]; Day 8) was 0.236, the “Avg ANGPTL3 (Average ANGPTL3 Protein Normalized to Pre-Treatment and Control)” value ([1]; Day 15) was 0.290 and the “Avg ANGPTL3 (Average ANGPTL3 Protein Normalized to Pre-Treatment and Control)” value ([1]; Day 22) was 0.394. For the same substance, the “Avg ANGPTL3 (Average ANGPTL3 Protein Normalized to Pre-Treatment and Control)” value ([1]; Day 29) was 0.517, the “Avg Total Chol (Average Total Cholestrol Normalized to Pre-Treatment and Control)” value [3, 15] was 0.783 and the “Avg Total Chol (Average Total Cholestrol Normalized to Pre-Treatment and Control)” value [3, 16] was 0.842. For the same substance, the “Avg Total Chol (Average Total Cholestrol Normalized to Pre-Treatment and Control)” value [3, 17] was 0.916, the “Avg Total Chol (Average Total Cholestrol Normalized to Pre-Treatment and Control)” value [3, 18] was 0.953 and the “Avg HDL (Average HDL Normalized to Pre-Treatment and Control)” value [5, 15] was 0.766. The “Avg HDL (Average HDL Normalized to Pre-Treatment and Control)” value [5, 16] was 0.823, the “Avg HDL (Average HDL Normalized to Pre-Treatment and Control)” value [5, 17] was 0.910 and the “Avg HDL (Average HDL Normalized to Pre-Treatment and Control)” value [5, 18] was 0.916.
